Measured values published in US20130345418A1, “PROCESS FOR PURIFICATION OF APREPITANT” (HETERO DRUGS LIMITED, priority 2006, published 2013).
Like-named read-outs stand apart in the source and are kept apart here.

Assays:
[1] = dissolution rate of amorphous versus crystalline aprepitant; assay type: physicochemical; conditions: compared with the known crystalline aprepitant
[2] = mean particle size of aprepitant; assay type: physicochemical; conditions: crystallized from ethyl acetate (Example 1)
[3] = aprepitant produced by the processes described in the prior art; cited from earlier work

In the case of `C[C@@H](O[C@H]1OCCN(Cc2n[nH]c(=O)[nH]2)[C@H]1c1ccc(F)cc1)c1cc(C(F)(F)F)cc(C(F)(F)F)c1` [amorphous aprepitant, 5-[[(2R,3S)-2-[(1R)-1-[3,5-bis(trifluoromethyl)phenyl]ethoxy]-3-(4-fluorophenyl)-4-morpholinyl]methyl]-1,2-dihydro-3H-1,2,4-triazol-3-one], the dissolution rate [1] is reported as “better dissolution rate than the known crystalline aprepitant”.
For `C[C@@H](O[C@H]1OCCN(Cc2n[nH]c(=O)[nH]2)[C@H]1c1ccc(F)cc1)c1cc(C(F)(F)F)cc(C(F)(F)F)c1` [aprepitant, 5-[[(2R,3S)-2-[(1R)-1-[3,5-bis(trifluoromethyl)phenyl]ethoxy]-3-(4-fluorophenyl)-4-morpholinyl]methyl]-1,2-dihydro-3H-1,2,4-triazol-3-one], the mean particle size [2] is given as 4.95 microns and the mean particle size [3] is given as “about 12 microns”.
